According to patent US20250034186A1, “ANTIVIRAL COMPOUNDS” (priority 2020, published 2025):

Legend:
HRV16 = HRV16 HeLa EC50; assay type: cell-based, human rhinovirus; conditions: for EC50: Human rhinovirus sp., HRV16, H1-HeLa cells, 96 h, 33° C.
Experimental: H1-HeLa cells, cultured in complete DMEM medium containing 10% heat-inactivated FBS and 1% Penicillin/Streptomycin, were seeded in 96 well plates at 3000 cells/well one day prior to compound dosing and infection. The antiviral activity of each compound was measured in triplicate. Compounds were added directly to the cell cultures in serial 3-fold dilutions using the HP300 digital dispenser (Hewlett Packard, Palo Alto, CA) immediately prior to infection. The plates were transferred to BSL-2 containment and the appropriate dilution of virus stock, previously determined by titration and prepared in cell culture media, was added to test plates containing cells and serially diluted compounds. Each plate included 6 wells of infected untreated cells and 6 wells of uninfected cells that served as 0% and 100% virus inhibition control, respectively. Following the infection, test plates were incubated for 96 h in a tissue culture incubator set to 33° C./5% CO2. Following incubation, the H1-HeLa cells were removed from incubation and allowed to equilibrate to 25° C. Cell viability was determined by removing 100 μL of culture medium and adding 100 μL of Cell-Titer Glo viability reagent. The mixtures were incubated on a shaker for 10 minutes at 25° C., and the luminescence signal was quantified on an Envision luminescence plate reader.

SAEC cytotoxicity assay = assay type: cell-based; conditions: human, small airway epithelial cells (SAEC)
Experimental: Human Small Airway Epithelial cells (SAEC) were purchased from Lonza (Walkersville, MD, Cat #CC-2547) and cultured in supplemented Small Airway Epithelial Cell Growth Medium (SAGM) (lonza, Walkersville, MD, Cat #CC-3118). The cells were passaged 1-2 times per week to maintain <80% confluency per manufacturer's protocol. The SAEC cells were discarded after 5 passages in culture.
Following attachment, 3-fold serially diluted compound was added using a Hewlett-Packard D300 Digital Dispenser (Hewlett Packard, Palo Alto, CA) in triplicate. The final concentration of DMSO was normalized to 1.0%. Following compound addition, NHBE or SAEC cells were incubated at 37° C. for 5 days. The NHBE or SAEC cells were then allowed to equilibrate to 25° C. and cell viability was determined by removing 100 μL of culture medium and adding 100 μL of Cell-Titer Glo viability reagent (Promega, Madison, WI). The mixtures were incubated for 10 minutes at 25° C., and the luminescence signal was quantified on an Envision luminescence plate reader (PerkinElmer, Waltham, MA). Percent viability values were determined by normalization to 1.0% DMSO-only control wells with background luminescent signal subtracted out.

PHH cytotoxicity assay = assay type: cell-based; conditions: human, fresh primary hepatocytes (PHH), daily replacement
Experimental: Three-fold serial dilutions of the compound of Formula I and compounds 1, 2 and 6 were prepared in duplicate in 96-well plates starting at a concentration of 50 or 100 μM. Fresh human hepatocytes were ordered in a 96-well plate format from BioIVT (Baltimore, Maryland, Cat #F/M91565) with a Matrigel overlay or Invitrogen (Durham, North Carolina, Cat #HMFY96) with a Geltrex overlay. Donor profiles were limited to 4-65-year old with minimal alcohol consumption. PHH cells were allowed to recover 4-24 hours in complete medium with added supplement supplied by the vendor at 37° C. in a 5% CO2 incubator with 90% humidity before treated with compounds. Serial-diluted compounds and complete medium were replaced (130 μL/well) daily for 5 days, with final amount of DMSO equal to 0.5%. On Day 5, medium was removed from the assay plates and cell viability was determined by the addition of 100 μL Cell-Titer Glo viability reagents (Promega, Madison, WI, Cat #G7573) added to each well. Following 5-10 minutes incubation at room temperature, luminescence signal was quantified on a Victor Luminescence plate reader (Perkin-Elmer, Waltham, MA).

HCV replicon 1B = experiment: HCV Rep 1B EC50; assay type: cell-based; conditions: for EC50: Hepatitis C virus, 72 h, HCV replicon cells, 3 days
Experimental: (§1) Compounds were serially diluted in ten steps of 1:3 dilutions in 384-well plates. All serial dilutions were performed in four replicates per compound within the same 384-well plate. […] To each well of a black polystyrene 384-well plate (Greiner Bio-one, Monroe, NC), 90 μL of cell culture medium (without Geneticin) containing 2000 suspended HCV replicon cells was added with a Biotek μFlow workstation. For compound transfer into cell culture plates, 0.4 μL of compound solution from the compound serial dilution plate was transferred to the cell culture plate on a Biomek FX workstation. The DMSO concentration in the final assay wells was 0.44%. The plates were incubated for 3 days at 37° C. with 5% CO2 and 85% humidity. The HCV replicon assay was a multiplex assay, able to assess both cytotoxicity and antireplicon activity from the same well. The CC50 assay was performed first. The media in the 384-well cell culture plate was aspirated, and the wells were washed four times with 100 μL of PBS each, using a Biotek ELX405 plate washer. A volume of 50 μL of a solution containing 400 nM calcein AM (Anaspec, Fremont, CA) in 1×PBS was added to each well of the plate with a Biotek μFlow workstation. The plate was incubated for 30 min at room temperature before the fluorescence signal (excitation 490 nm, emission 520 nm) was measured with a Perkin-Elmer Envision plate reader. The EC50 assay was performed in the same wells as the CC50 assay. The calcein-PBS solution in the 384-well cell culture plate was aspirated with a Biotek ELX405 plate washer. A volume of 20 μL of Dual-Glo luciferase buffer (Promega, Madison, WI) was added to each well of the plate with a Biotek μFlow Workstation. The plate was incubated for 10 min at room temperature. […] The plate was then incubated at room temperature for 10 min before the luminescence signal was measured with a Perkin-Elmer Envision Plate Reader.

HCV replicon 2A = experiment: HCV Rep 2A EC50; assay type: cell-based; conditions: for EC50: Hepatitis C virus, 72 h, HCV replicon cells, 3 days
Experimental: as §1

Row | SMILES | times more potent than compound 7, HRV16 HeLa (HRV16; EC50 ratio vs compound 7) | EC50 (HRV16) | CC50 at 5 days (SAEC cytotoxicity assay) | CC50 at 5 days (PHH cytotoxicity assay) | EC50 (HCV replicon 1B) | EC50 (HCV replicon 2A) | times more potent than the compound of Formula Ib, HRV16 HeLa (HRV16; EC50 ratio vs Formula Ib) | times more potent relative to compound 1, HRV16 HeLa (HRV16; EC50 ratio vs compound 1) | times more potent relative to compound 3, HRV16 HeLa (HRV16; EC50 ratio vs compound 3) | times more potent relative to compound 4, HRV16 Hela (HRV16; EC50 ratio vs compound 4) | times more potent relative to compound 5, HRV16 HeLa (HRV16; EC50 ratio vs compound 5) | times more potent relative to compound 2, HCV Rep 1B (HCV replicon 1B; EC50 ratio vs compound 2) | times more potent relative to compound 2, HCV Rep 2A (HCV replicon 2A; EC50 ratio vs compound 2)
1 | CCC(CC)COC(=O)[C@H](C)N[P@](=O)(OC[C@@]1(C#N)O[C@@H](c2ccc3c(N)ncnn23)[C@H](O)[C@@H]1O)Oc1ccccc1 [Compound 6, 2-ethylbutyl ((S)-(((2R,3S,4R,5S)-5-(4-aminopyrrolo[2,1-f][1,2,4]triazin-7-yl)-2-cyano-3,4-dihydroxytetrahydrofuran-2-yl)methoxy)(phenoxy)phosphoryl)alaninate] | 1.4 times | 0.135 µM | 27.2 µM | 14.1 µM | – | – | – | – | – | – | – | – | –
2 | CCOC(=O)[C@H](C)NP(=O)(OC[C@@]1(C#N)O[C@@H](c2ccc3c(N)ncnn23)[C@H](O)[C@@H]1O)Oc1ccccc1 (stereo partly drawn) [Compound 1, reference compound] | – | 0.959 µM | – | – | – | – | – | – | – | – | – | – | –
3 | CCC(CC)COC(=O)[C@H](C)NP(=O)(OC[C@@]1(C#N)O[C@@H](c2ccc3c(N)ncnn23)[C@H](O)[C@@H]1O)Oc1ccccc1 (stereo partly drawn) [Compound 2, reference compound] | – | 0.164 µM | 28.3 µM | – | 2.78 µM | 1.83 µM | – | – | – | – | – | – | –
4 | C[C@H](N[P@](=O)(OC[C@@]1(C#N)O[C@@H](c2ccc3c(N)ncnn23)[C@H](O)[C@@H]1O)Oc1ccccc1)C(=O)OC1CCCCC1 [Formula I, cyclohexyl ((S)-(((2R,3S,4R,5S)-5-(4-aminopyrrolo[2,1-f][1,2,4]triazin-7-yl)-2-cyano-3,4-dihydroxytetrahydrofuran-2-yl)methoxy)(phenoxy)phosphoryl)-L-alaninate] | – | 0.227 µM | 123 µM | 21.2 µM | 0.793 µM | 1.27 µM | 2.9 times | about 4.2 times | about 6.2 times | about 4.3 times | about 13.8 times | about 3.5 times | ~1.4 times
